Results: article PMC6522510 (Nature Communications, 2019)
Counter-ions that a name gives are not always drawn. Like-named read-outs stand apart in the source and are kept apart here.

Columns and labels:
Parameters in all cases: species or system AML cell lines (8); Primary HTS, single concentration about 10 uM, Cell Titer Glo viability; log10 luminescence, per cent inhibition relative to cycloheximide control
Conditions in all cases: 72 h, relative to cycloheximide control, log10 luminescence, inhibitor
MOLM-13 = system: MOLM-13
ML-2 = system: ML-2
U937 = system: U937
CHRF288-11 = system: CHRF288-11
MV4-11 = system: MV4-11
CMS = system: CMS
M07e = system: M07e
CMK = system: CMK

SMILES	MOLM-13 %inh (MOLM-13; MOLM-13 %inh, 10 µM)	ML-2 %inh (ML-2; ML-2 %inh, 10 µM)	U937 %inh (U937; U937 %inh, 10 µM)	CHRF288-11 %inh (CHRF288-11; CHRF288-11 %inh, 10 µM)	MV4-11 %inh (MV4-11; MV4-11 %inh, 10 µM)	CMS %inh (CMS; CMS %inh, 10 µM)	M07e %inh (M07e; M07e %inh, 10 µM)	CMK %inh (CMK; CMK %inh, 10 µM)	MOLM-13 %inh (MOLM-13)	ML-2 %inh (ML-2)	U937 %inh (U937)	CHRF288-11 %inh (CHRF288-11)	MV4-11 %inh (MV4-11)	CMS %inh (CMS)	M07e %inh (M07e)	CMK %inh (CMK)
Clc1ccc(C(Cn2ccnc2)OCc2ccsc2Cl)c(Cl)c1 (single isomer, unassigned) [SJ000556739-1, TIOCONAZOLE]	23.12%	9.708%	20.14%	35.73%	16.99%	7.938%	14.34%	41.48%								
Clc1ccc(C(Cn2ccnc2)OCc2ccsc2Cl)c(Cl)c1 (single isomer, unassigned) [SJ000556739-2, TIOCONAZOLE]	22.63%	3.315%	5.367%	62.31%	16.77%	5.318%	7.997%	43.08%								
CC1/C=C/C=C/C=C/C=C/C=C/C=C/C=C/C(OC2O[C@H](C)[C@@H](O)[C@H](N)[C@@H]2O)CC(O)C(C(=O)O)C(O)CC(=O)CC(O)CC(O)CC(O)CC(=O)CCCC(=O)CC(=O)OC1C(C)CC(C)C(O)CC(=O)c1ccc(N)cc1 (single isomer, unassigned) [SJ000565161-1, CANDICIDIN]	72.78%	42.43%	16.5%	56.49%	39.81%	12.57%	2.094%	120.6%								
CC1/C=C/C=C/C=C/C=C/C=C/C=C/C=C/C(OC2O[C@H](C)[C@@H](O)[C@H](N)[C@@H]2O)CC(O)C(C(=O)O)C(O)CC(=O)CC(O)CC(O)CC(O)CC(=O)CCCC(=O)CC(=O)OC1C(C)CC(C)C(O)CC(=O)c1ccc(N)cc1 (single isomer, unassigned) [SJ000565161-2, CANDICIDIN]	0.5936%	-0.08515%	-1.702%	84.68%	0.2404%	0.8019%	-1.61%	-1.968%								
O=c1ncnc2n([C@H]3O[C@@H](CO)[C@H](O)[C@@H]3O)[nH]cc1-2 (stereo in doubt) [SJ000562682-1, ALLOPURINOL RIBOSIDE]									4.507%	0.3274%	0.8426%	1.868%	0.9814%	-1.89%	-1.058%	1.077%
CO[C@H]1/C=C/O[C@@]2(C)Oc3c(C)c(O)c4c(O)c(c(/C=N/N5CCN(C)CC5)c(O)c4c3C2=O)NC(=O)/C(C)=C\C=C\[C@H](C)[C@H](O)[C@@H](C)[C@@H](O)[C@@H](C)[C@H](OC(C)=O)[C@@H]1C [SJ000000850-5, RIFAMPIN | RIFAMPICIN]	-1.813%	5.116%	3.295%	0.3238%	3.37%	9.631%	0.4502%	-4.011%								
CO[C@H]1/C=C/O[C@@]2(C)Oc3c(C)c(O)c4c(O)c(c(/C=N/N5CCN(C)CC5)c(O)c4c3C2=O)NC(=O)/C(C)=C\C=C\[C@H](C)[C@H](O)[C@@H](C)[C@@H](O)[C@@H](C)[C@H](OC(C)=O)[C@@H]1C [SJ000000850-6, RIFAMPIN | RIFAMPICIN]	5.052%	3.762%	3.577%	0.456%	5.189%	11.96%	0.5367%	-0.3986%								
CO[C@H]1/C=C/O[C@@]2(C)Oc3c(C)c(O)c4c(O)c(c(/C=N/N5CCN(C)CC5)c(O)c4c3C2=O)NC(=O)/C(C)=C\C=C\[C@H](C)[C@H](O)[C@@H](C)[C@@H](O)[C@@H](C)[C@H](OC(C)=O)[C@@H]1C [SJ000000850-7, RIFAMPIN | RIFAMPICIN]	4.02%	2.607%	2.422%	22.26%	6.955%	16.96%	2.856%	0.4994%								
COc1cc2nc(N3CCN(C(=O)C4COc5ccccc5O4)CC3)nc(N)c2cc1OC (stereo not shown) [SJ000113084-6, DOXAZOSIN MESYLATE]									9.986%	-0.964%	1.071%	36.53%	-1.195%	0.401%	-1.557%	9.497%
N#Cc1c(NC(=O)c2ccccc2F)sc2c1CCCC2 [SJ000121296-2, R15619/66/1]									0.9257%	8%	21.81%	1.937%	-1.785%	2.048%	15.03%	11.25%
CC(=O)[C@H]1CC[C@H]2[C@@H]3CC=C4C[C@@H](O)CC[C@]4(C)[C@H]3CC[C@]12C [SJ000281777-6, PREGNENOLONE]									2.085%	0.5574%	3.219%	0.2511%	6.672%	6.885%	1.706%	-1.238%
O=c1oc2ccccc2c(O)c1Cc1c(O)c2ccccc2oc1=O [SJ000285189-5, DICUMAROL]	-3.706%	-1.314%	-0.6%	8.973%	-2.098%	-1.99%	-2.456%	-3.554%								
O=c1oc2ccccc2c(O)c1Cc1c(O)c2ccccc2oc1=O [SJ000285189-6, DICUMAROL]	0.9251%	-0.8259%	-0.6405%	3.41%	0.4793%	-1.661%	0.4208%	-0.9245%								
C[C@H]1O[C@@H](O[C@H]2[C@@H](O)C[C@H](O[C@H]3[C@@H](O)C[C@H](O[C@H]4CC[C@@]5(C)[C@H](CC[C@@H]6[C@@H]5CC[C@]5(C)[C@@H](C7=CC(=O)OC7)CC[C@]65O)C4)O[C@@H]3C)O[C@@H]2C)C[C@H](O)[C@@H]1O [SJ000285233-4, DIGITOXIN]	81.14%	57.88%	77.98%	102.9%	82.27%	96.1%	114.3%	102%								
